Experimental data published in ChEMBL document CHEMBL1201861, “Genomics of Drug Sensitity in Cancer screening data, Wellcome Trust Sanger Institute”.
Values joined by “and” are separate entries in the source; they are usually repeats but may differ in a detail not shown here. Equal entries are not always repeated.

Key:
Test in all cases: cells
[1] = tested on: CaR-1; type: functional, cell-based, Homo sapiens;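 also: growth inhibition of human CaR-1 cancer cells, read out with a cell viability assay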
Description: SANGER: Inhibition of human CaR-1 cell growth in a cell viability assay.

[2] = tested on: ChaGo-K-1; type: functional, cell-based; conditions: Homo sapiens;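 also: growth inhibition of ChaGo-K-1 cells, read out with a cell viability assay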
Description: SANGER: Inhibition of human ChaGo-K-1 cell growth in a cell viability assay.

[3] = tested on: DMS-273; type: functional, cell-based, Homo sapiens
Description: SANGER: Inhibition of human DMS-273 cell growth in a cell viability assay.

[4] = tested on: DOHH-2; type: functional, cell-based; conditions: Homo sapiens;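 also: growth inhibition of human DOHH-2 cells, read out with a cell viability assay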
Description: SANGER: Inhibition of human DOHH-2 cell growth in a cell viability assay.

[5] = tested on: DU-145; type: functional, cell-based, Homo sapiens
Description: SANGER: Inhibition of human DU-145 cell growth in a cell viability assay.

[6] = tested on: EKVX; type: functional, cell-based, Homo sapiens;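 also: growth inhibition of human EKVX cells, read out with a cell viability assay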
Description: SANGER: Inhibition of human EKVX cell growth in a cell viability assay.

[7] = tested on: EW-3; type: functional, cell-based; conditions: Homo sapiens;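 also: cell viability assay read-out, IC50 reflects inhibition of growth of the EW-3 cells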
Description: SANGER: Inhibition of human EW-3 cell growth in a cell viability assay.

[8] = tested on: HCC 2998; type: functional, cell-based, Homo sapiens;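 also: growth inhibition of human HCC2998 cells, measured with a cell viability read-out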
Description: SANGER: Inhibition of human HCC2998 cell growth in a cell viability assay.

[9] = tested on: HCC38; type: functional, cell-based, Homo sapiens;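 also: cell viability assay on the human HCC38 cell line, with IC50 marking the concentration that inhibits cell growth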
Description: SANGER: Inhibition of human HCC38 cell growth in a cell viability assay.

[10] = tested on: HDLM-2; type: functional, cell-based; conditions: Homo sapiens;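 also: cell viability assay measuring suppression of HDLM-2 proliferation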
Description: SANGER: Inhibition of human HDLM-2 cell growth in a cell viability assay.

[11] = tested on: HN; type: functional, cell-based, Homo sapiens
Description: SANGER: Inhibition of human HN cell growth in a cell viability assay.

[12] = tested on: HT-29; type: functional, cell-based, Homo sapiens;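 also: growth inhibition of human HT-29 cells, read out by a cell viability assay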
Description: SANGER: Inhibition of human HT-29 cell growth in a cell viability assay.

[13] = tested on: HTC-C3; type: functional, cell-based, Homo sapiens;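 also: inhibition of cell growth, read out with a cell viability assay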
Description: SANGER: Inhibition of human HTC-C3 cell growth in a cell viability assay.

[14] = tested on: IGROV-1; type: functional, cell-based, Homo sapiens;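 also: reduction of IGROV-1 cell growth, read out with a viability assay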
Description: SANGER: Inhibition of human IGROV-1 cell growth in a cell viability assay.

[15] = tested on: KALS-1; type: functional, cell-based, Homo sapiens;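 also: growth inhibition of KALS-1 cells, determined with a cell viability assay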
[16] = tested on: KNS-81-FD; type: functional, cell-based, Homo sapiens;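 also: growth inhibition of KNS-81-FD cells, read out with a cell viability assay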
Description: SANGER: Inhibition of human KNS-81-FD cell growth in a cell viability assay.

[17] = tested on: KP-N-YS; type: functional, cell-based; conditions: Homo sapiens;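 also: cell viability assay measuring inhibition of cell line growth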
Description: SANGER: Inhibition of human KP-N-YS cell growth in a cell viability assay.

[18] = tested on: KYSE-510; type: functional, cell-based, Homo sapiens;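 also: cell viability readout used to measure how strongly growth of the cell line is suppressed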
Description: SANGER: Inhibition of human KYSE-510 cell growth in a cell viability assay.

[19] = tested on: LB1047-RCC; type: functional, cell-based, Homo sapiens;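 also: inhibition of cell growth, determined with a cell viability assay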
Description: SANGER: Inhibition of human LB1047-RCC cell growth in a cell viability assay.

[20] = tested on: LB831-BLC; type: functional, cell-based, Homo sapiens;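 also: growth inhibition of LB831-BLC cells, read out with a cell viability assay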
Description: SANGER: Inhibition of human LB831-BLC cell growth in a cell viability assay.

[21] = tested on: LCLC-103H cell line; type: functional, cell-based, Homo sapiens
Description: SANGER: Inhibition of human LCLC-103H cell growth in a cell viability assay.

[22] = tested on: NB10; type: functional, cell-based, Homo sapiens;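 also: growth inhibition of NB10 cells, read out by a cell viability assay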
Description: SANGER: Inhibition of human NB10 cell growth in a cell viability assay.

[23] = tested on: NCI-H1299; type: functional, cell-based, Homo sapiens;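 also: growth inhibition of human NCI-H1299 cells, read out by a cell viability assay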
Description: SANGER: Inhibition of human NCI-H1299 cell growth in a cell viability assay.

[24] = tested on: NCI-H2030; type: functional, cell-based, Homo sapiens;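 also: growth inhibition of human NCI-H2030 cells, read out by a cell viability assay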
Description: SANGER: Inhibition of human NCI-H2030 cell growth in a cell viability assay.

[25] = tested on: NCI-H28; type: functional, cell-based, Homo sapiens;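 also: growth inhibition of human NCI-H28 cells, read out as cell viability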
Description: SANGER: Inhibition of human NCI-H28 cell growth in a cell viability assay.

[26] = tested on: NCI-H69; type: functional, cell-based; conditions: Homo sapiens;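 also: growth inhibition of the cell line, read out with a cell viability assay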
Description: SANGER: Inhibition of human NCI-H69 cell growth in a cell viability assay.

[27] = tested on: NH-12; type: functional, cell-based, Homo sapiens;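 also: growth inhibition of NH-12 cells, read out with a cell viability assay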
Description: SANGER: Inhibition of human NH-12 cell growth in a cell viability assay.

[28] = tested on: NOS-1; type: functional, cell-based, Homo sapiens;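 also: growth inhibition of the human NOS-1 cell line, read out with a cell viability assay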
Description: SANGER: Inhibition of human NOS-1 cell growth in a cell viability assay.

[29] = tested on: NY; type: functional, cell-based, Homo sapiens
Description: SANGER: Inhibition of human NY cell growth in a cell viability assay.

[30] = tested on: OAW-42; type: functional, cell-based, Homo sapiens;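 also: growth inhibition of OAW-42 cells, read out with a cell viability assay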
Description: SANGER: Inhibition of human OAW-42 cell growth in a cell viability assay.

[31] = tested on: RKO; type: functional, cell-based, Homo sapiens;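 also: growth inhibition of human RKO cells, read out with a cell viability assay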
Description: SANGER: Inhibition of human RKO cell growth in a cell viability assay.

[32] = tested on: RPMI-8226; type: functional, cell-based; conditions: Homo sapiens
Description: SANGER: Inhibition of human RPMI-8226 cell growth in a cell viability assay.

[33] = tested on: SK-LMS-1; type: functional, cell-based, Homo sapiens;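 also: growth inhibition of human SK-LMS-1 cells, read out with a cell viability assay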
Description: SANGER: Inhibition of human SK-LMS-1 cell growth in a cell viability assay.

[34] = tested on: SK-MEL-28; type: functional, cell-based; conditions: Homo sapiens;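 also: growth inhibition of human SK-MEL-28 cells, read out with a cell viability assay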
Description: SANGER: Inhibition of human SK-MEL-28 cell growth in a cell viability assay.

[35] = tested on: SK-MEL-30; type: functional, cell-based; conditions: Homo sapiens;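 also: growth inhibition of SK-MEL-30 cells, determined with a cell viability assay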
Description: SANGER: Inhibition of human SK-MEL-30 cell growth in a cell viability assay.

[36] = tested on: SK-N-AS; type: functional, cell-based, Homo sapiens;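 also: growth inhibition of human SK-N-AS cells, measured with a cell viability assay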
Description: SANGER: Inhibition of human SK-N-AS cell growth in a cell viability assay.

[37] = tested on: SW1417; type: functional, cell-based, Homo sapiens;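 also: growth inhibition of human SW1417 cells, read out with a cell viability assay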
Description: SANGER: Inhibition of human SW1417 cell growth in a cell viability assay.

[38] = tested on: SW948; type: functional, cell-based, Homo sapiens;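 also: growth inhibition of SW948 cells, read out with a cell viability assay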
Description: SANGER: Inhibition of human SW948 cell growth in a cell viability assay.

[39] = tested on: SW 954; type: functional, cell-based, Homo sapiens;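 also: growth inhibition of SW954 human cancer cells, read out as cell viability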
Description: SANGER: Inhibition of human SW954 cell growth in a cell viability assay.

[40] = tested on: 647-V; type: functional, cell-based, Homo sapiens;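 also: growth inhibition of 647-V cells, read out with a cell viability assay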
Description: SANGER: Inhibition of human 647-V cell growth in a cell viability assay.

[41] = tested on: A101D; type: functional, cell-based, Homo sapiens;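 also: growth inhibition of the cell line, measured with a viability assay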
Description: SANGER: Inhibition of human A101D cell growth in a cell viability assay.

[42] = tested on: A3-KAW; type: functional, cell-based; conditions: Homo sapiens;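 also: growth inhibition of human A3-KAW cells, read out with a cell viability assay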
Description: SANGER: Inhibition of human A3-KAW cell growth in a cell viability assay.

[43] = tested on: A4-Fuk; type: functional, cell-based; conditions: Homo sapiens;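 also: growth inhibition of A4-Fuk cells, read out by a cell viability assay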
Description: SANGER: Inhibition of human A4-Fuk cell growth in a cell viability assay.

[44] = tested on: AGS; type: functional, cell-based, Homo sapiens;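 also: growth inhibition of AGS cells, determined with a cell viability assay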
Description: SANGER: Inhibition of human AGS cell growth in a cell viability assay.

[45] = tested on: ATN-1; type: functional, cell-based; conditions: Homo sapiens;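 also: growth inhibition of human ATN-1 cells, read out with a cell viability assay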
Description: SANGER: Inhibition of human ATN-1 cell growth in a cell viability assay.

[46] = tested on: BFTC-909; type: functional, cell-based, Homo sapiens
Description: SANGER: Inhibition of human BFTC-909 cell growth in a cell viability assay.

[47] = tested on: BHY; type: functional, cell-based, Homo sapiens;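 also: cell growth inhibition read out by a viability assay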
Description: SANGER: Inhibition of human BHY cell growth in a cell viability assay.

[48] = tested on: C8166; type: functional, cell-based; conditions: Homo sapiens;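 also: growth inhibition of human C8166 cells measured by a cell viability assay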
Description: SANGER: Inhibition of human C8166 cell growth in a cell viability assay.

[49] = tested on: UMC-11; type: functional, cell-based, Homo sapiens;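 also: growth inhibition of UMC-11 cells, read out with a cell viability assay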
Description: SANGER: Inhibition of human UMC-11 cell growth in a cell viability assay.

[50] = tested on: no-10; type: functional, cell-based, Homo sapiens;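 also: growth inhibition of no-10 cells, read out with a cell viability assay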
Description: SANGER: Inhibition of human no-10 cell growth in a cell viability assay.

[51] = tested on: CAS-1; type: functional, cell-based, Homo sapiens;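 also: growth inhibition of CAS-1 cells, measured with a cell viability assay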
[52] = tested on: COLO-680N; type: functional, cell-based, Homo sapiens;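 also: cell viability assay used to measure inhibition of COLO-680N cell growth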
Description: SANGER: Inhibition of human COLO-680N cell growth in a cell viability assay.

CN(C)C/C=C/C(=O)Nc1cc2c(Nc3ccc(F)c(Cl)c3)ncnc2cc1O[C@H]1CCOC1 [AFATINIB]
IC50 ([1]; Homo sapiens, CaR-1): > 0.5 µM
IC50 [2]: > 0.5 µM
IC50 ([3]; Homo sapiens, DMS-273): > 0.5 µM
IC50 [4]: > 0.5 µM
IC50 ([5]; Homo sapiens, DU-145): 0.448 µM
IC50 ([6]; Homo sapiens, EKVX): > 0.5 µM
IC50 [7]: > 0.5 µM
IC50 ([8]; Homo sapiens, HCC 2998): > 0.5 µM
IC50 ([9]; Homo sapiens, HCC38): > 0.5 µM
IC50 [10]: 0.00572 µM
IC50 ([11]; Homo sapiens, HN): 0.131 µM
IC50 ([12]; Homo sapiens, HT-29): > 0.5 µM
IC50 ([13]; Homo sapiens, HTC-C3): > 0.5 µM
IC50 ([14]; Homo sapiens, IGROV-1): 0.26 µM
IC50 ([15]; Homo sapiens, KALS-1): > 0.5 µM
IC50 ([16]; Homo sapiens, KNS-81-FD): > 0.5 µM
IC50 [17]: > 0.5 µM
IC50 ([18]; Homo sapiens, KYSE-510): > 0.5 µM
IC50 ([19]; Homo sapiens, LB1047-RCC): > 0.5 µM
IC50 ([20]; Homo sapiens, LB831-BLC): > 0.5 µM
IC50 ([21]; Homo sapiens, LCLC-103H): > 0.5 µM
IC50 ([22]; Homo sapiens, NB10): > 0.5 µM
IC50 ([23]; Homo sapiens, NCI-H1299): > 0.5 µM
IC50 ([24]; Homo sapiens, NCI-H2030): > 0.5 µM
IC50 ([25]; Homo sapiens, NCI-H28): > 0.5 µM
IC50 [26]: 0.215 µM
IC50 ([27]; Homo sapiens, NH-12): > 0.5 µM
IC50 ([28]; Homo sapiens, NOS-1): > 0.5 µM
IC50 ([29]; Homo sapiens, NY): > 0.5 µM
IC50 ([30]; Homo sapiens, OAW-42): > 0.5 µM
IC50 ([31]; Homo sapiens, RKO): > 0.5 µM
IC50 [32]: > 0.5 µM
IC50 ([33]; Homo sapiens, SK-LMS-1): > 0.5 µM
IC50 [34]: > 0.5 µM
IC50 [35]: > 0.5 µM
IC50 ([36]; Homo sapiens, SK-N-AS): > 0.5 µM
IC50 ([37]; Homo sapiens, SW1417): > 0.5 µM
IC50 ([38]; Homo sapiens, SW948): > 0.5 µM
IC50 ([39]; Homo sapiens, SW 954): > 0.5 µM
IC50 ([40]; Homo sapiens, 647-V): > 0.5 µM
IC50 ([41]; Homo sapiens, A101D): > 0.5 µM
IC50 [42]: > 0.5 µM
IC50 [43]: > 0.5 µM
IC50 ([44]; Homo sapiens, AGS): > 0.5 µM
IC50 [45]: > 0.5 µM
IC50 ([46]; Homo sapiens, BFTC-909): > 0.5 µM
IC50 ([47]; Homo sapiens, BHY): 0.287 µM
IC50 [48]: > 0.5 µM
IC50 ([49]; Homo sapiens, UMC-11): > 0.5 µM
IC50 ([50]; Homo sapiens): > 0.5 µM
IC50 ([51]; Homo sapiens, CAS-1): > 0.5 µM
IC50 ([52]; Homo sapiens, COLO-680N): > 0.5 µM

Cc1cc([C@@H](C)Nc2ccccc2C(=O)O)c2nc(N3CCOCC3)cc(=O)n2c1 [AZD-6482]
IC50 ([1]; car-1): > 5.12 µM
IC50 [2]: > 5.12 µM
IC50 ([3]; Homo sapiens, DMS-273): 4.83 µM
IC50 ([3]; dms-273): 2.48 µM
IC50 [4]: 4.65 µM
IC50 ([5]; du-145): > 5.12 µM and 1.37 µM
IC50 ([6]; ekvx): > 5.12 µM
IC50 [7]: > 5.12 µM
IC50 ([8]; hcc 2998): > 5.12 µM
IC50 ([9]; hcc38): > 5.12 µM
IC50 [10]: > 5.12 µM
IC50 ([11]; hn): > 5.12 µM
IC50 ([12]; ht-29): > 5.12 µM
IC50 ([13]; Homo sapiens, HTC-C3): > 5.12 µM
IC50 ([13]; htc-c3): > 5.12 µM
IC50 ([14]; Homo sapiens, IGROV-1): 1.97 µM
IC50 ([14]; igrov-1): 2.55 µM
IC50 ([15]; Homo sapiens, KALS-1): 4.35 µM
IC50 ([15]; kals-1): > 5.12 µM
IC50 ([16]; kns-81-fd): > 5.12 µM
IC50 [17]: > 5.12 µM
IC50 ([18]; Homo sapiens, KYSE-510): > 5.12 µM
IC50 ([18]; kyse-510): > 5.12 µM
IC50 ([19]; Homo sapiens, LB1047-RCC): > 5.12 µM
IC50 ([19]; lb1047-rcc): > 5.12 µM
IC50 ([20]; lb831-blc): > 5.12 µM
IC50 ([21]; Homo sapiens, LCLC-103H): > 5.12 µM
IC50 ([21]; lclc-103h): > 5.12 µM
IC50 ([22]; Homo sapiens, NB10): > 5.12 µM
IC50 ([22]; nb10): > 5.12 µM
IC50 ([23]; nci-h1299): 3.67 µM and > 5.12 µM
IC50 ([24]; Homo sapiens, NCI-H2030): 2.9 µM
IC50 ([24]; nci-h2030): 2.69 µM
IC50 ([25]; nci-h28): > 5.12 µM
IC50 [26]: > 5.12 µM
IC50 ([27]; Homo sapiens, NH-12): > 5.12 µM
IC50 ([27]; nh-12): > 5.12 µM
IC50 ([28]; Homo sapiens, NOS-1): > 5.12 µM
IC50 ([28]; nos-1): > 5.12 µM
IC50 ([29]; Homo sapiens, NY): > 5.12 µM
IC50 ([29]; ny): > 5.12 µM
IC50 ([30]; oaw-42): > 5.12 µM
IC50 ([31]; Homo sapiens, RKO): 3.06 µM
IC50 ([31]; rko): 3.19 µM
IC50 [32]: > 5.12 µM
IC50 ([33]; Homo sapiens, SK-LMS-1): 3.07 µM
IC50 ([33]; sk-lms-1): 4.62 µM
IC50 [34]: > 5.12 µM
IC50 [35]: > 5.12 µM
IC50 ([36]; Homo sapiens, SK-N-AS): > 5.12 µM
IC50 ([36]; sk-n-as): > 5.12 µM
IC50 ([37]; sw1417): > 5.12 µM
IC50 ([38]; sw948): > 5.12 µM
IC50 ([39]; sw 954): 4.5 µM and > 5.12 µM
IC50 ([40]; 647-v): > 5.12 µM
IC50 ([41]; a101d): 3.21 µM and > 5.12 µM
IC50 [42]: > 5.12 µM
IC50 [43]: 3.08 µM
IC50 ([44]; Homo sapiens, AGS): > 5.12 µM
IC50 ([44]; ags): > 5.12 µM
IC50 [45]: > 5.12 µM
IC50 ([46]; bftc-909): > 5.12 µM
IC50 ([47]; bhy): > 5.12 µM
IC50 [48]: > 5.12 µM
IC50 ([49]; Homo sapiens, UMC-11): > 5.12 µM
IC50 ([49]; umc-11): > 5.12 µM
IC50 [50]: > 5.12 µM
IC50 ([50]; Homo sapiens): > 5.12 µM
IC50 ([51]; Homo sapiens, CAS-1): > 5.12 µM
IC50 ([51]; cas-1): > 5.12 µM
IC50 ([52]; colo-680n): > 5.12 µM
